From patent US5789404A, “3-substituted 1-arylindole compounds” (H. Lundbeck A/S, priority 1993, dated 1998) come the findings set out here.

Counter-ions that a name gives are not always drawn. Like-named read-outs stand apart in the source and are kept apart here.

One assay deals with dopamine D2 receptors (Rattus norvegicus, UniProt P61169). The assay can be described thus: biochemical. Type of assay: binding. On the procedure: Inhibition of ^3 H-Spiroperidol Binding to Dopamine D2 Receptors in Rat Corpus Striatum in vitro
Chain of dopamine D2 receptors (P61169 whole entry): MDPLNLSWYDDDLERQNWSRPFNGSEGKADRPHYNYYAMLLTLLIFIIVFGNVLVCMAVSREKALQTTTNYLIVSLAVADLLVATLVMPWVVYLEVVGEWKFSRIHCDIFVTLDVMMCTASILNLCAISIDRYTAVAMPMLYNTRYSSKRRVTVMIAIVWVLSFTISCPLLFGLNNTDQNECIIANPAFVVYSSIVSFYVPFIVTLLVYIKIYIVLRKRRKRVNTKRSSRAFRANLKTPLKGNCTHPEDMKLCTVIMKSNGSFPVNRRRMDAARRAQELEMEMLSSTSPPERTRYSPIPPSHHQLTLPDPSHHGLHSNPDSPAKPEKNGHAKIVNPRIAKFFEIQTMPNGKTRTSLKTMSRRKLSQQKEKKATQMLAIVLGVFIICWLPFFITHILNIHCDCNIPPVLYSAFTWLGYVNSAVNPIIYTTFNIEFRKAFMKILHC
By this method the inhibition by drugs of the binding of ^3 H-spiroperidol (0.5 nM) to dopamine D2 receptors in membranes from rat corpus striatum is determined in vitro.

The next assay deals with T1, 5-HT2 receptors (Rattus norvegicus, UniProt P14842).
T1 construct: 5-HT2 Receptors in Rat Cortex in vitro; from tissue; host or cells: rat cortex membranes
T1 sequence (P14842 whole entry): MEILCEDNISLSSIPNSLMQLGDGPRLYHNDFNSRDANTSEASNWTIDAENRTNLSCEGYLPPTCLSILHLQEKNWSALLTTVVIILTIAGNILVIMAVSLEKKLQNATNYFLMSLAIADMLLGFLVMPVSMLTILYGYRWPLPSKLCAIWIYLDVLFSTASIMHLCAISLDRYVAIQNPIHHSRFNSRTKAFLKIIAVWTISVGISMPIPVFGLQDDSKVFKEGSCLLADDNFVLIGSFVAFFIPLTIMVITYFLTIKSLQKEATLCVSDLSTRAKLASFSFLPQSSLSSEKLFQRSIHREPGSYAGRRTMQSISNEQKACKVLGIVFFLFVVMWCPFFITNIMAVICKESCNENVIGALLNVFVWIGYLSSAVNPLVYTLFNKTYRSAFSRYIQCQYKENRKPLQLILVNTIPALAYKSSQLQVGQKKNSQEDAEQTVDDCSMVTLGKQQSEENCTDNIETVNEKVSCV
Kind of assay: Inhibition of ^3 H-Ketanserin Binding to 5-HT2 Receptors in Rat Cortex in vitro. On the procedure:
Inhibition of ^3 H-Ketanserin Binding to 5-HT2 Receptors in Rat Cortex in vitro
By this method the inhibition by drugs of the binding of ^3 H-Ketanserin (0,5 nM) to 5-HT2 receptors in membranes from rat is determined in vitro. The method is described in Hyttel, Pharmacol. & Toxicol.

Where [1] appears, read: ^3 H-spiroperidol 0.5 nM, rat corpus striatum membranes, read-out: Dopamin D2 binding ^3 H spiroperidol, IC50.
Setting [2] is: ^3 H-Ketanserin 0,5 nM, rat cortex membranes, read-out: 5-HT2 binding ^3 H ketanserin, IC50.
Where [3] appears, read: read-out: Dopamin D2 binding ^3 H spiroperidol, IC50.

Consider “5-Chloro-1-(4-fluorophenyl)-3-[3-(4-piperidinyl)propyl]-1H-indole hydrochloride [Compound 3d]”, for which the IC50 on dopamine D2 receptors (setting [1]) came out at 21 nM; at 5-HT2 receptors (setting [2]), 110 nM.
For `CN1CCCC1COc1cn(-c2ccc(F)cc2)c2ccc(Cl)cc12` (stereo in doubt) [Compound 7b, (S)-1-Methyl-2-pyrrolidinylmethoxy-5-chloro-1-(4-fluorophenyl)-1H-indole oxalate], the IC50 at dopamine D2 receptors (setting [1]) was found to be 18 nM; at 5-HT2 receptors (read-out: 5-HT2 binding ^3 H ketanserin, IC50, ^3 H-Ketanserin 0,5 nM, rat cortex membranes), 8.2 nM.
Turning to `CN(C)CCCc1cn(-c2ccc(F)cc2)c2ccc(Cl)cc12` [Compound 3a, N,N-Dimethyl-3-[5-chloro-1-(4-fluorophenyl)-3-1H-indolyl]propylamine fumarate], the IC50 on dopamine D2 receptors (setting [1]) was 42 nM; on 5-HT2 receptors (setting [2]) it was 19 nM.
With `CN(CCCc1cn(-c2ccc(F)cc2)c2ccc(Cl)cc12)CCN1CCNC1=O` [Compound 3b, 1-[2-[[3-[5-chloro-1-(4-fluorophenyl)-3-1H-indolyl]propyl]methylamino]ethyl]-2-imidazolidinone fumarate], the IC50 amounted to 190 nM at dopamine D2 receptors (setting [1]) and 7.8 nM on 5-HT2 receptors (setting [2]).
Take `Fc1ccc(-n2cc(CCCN3CCOCC3)c3cc(Cl)ccc32)cc1` [Compound 3c, 5-Chloro-1-(4-fluorophenyl)-3-[3-(4-morpholinyl)propyl]-1H-indole maleate]: the IC50 on dopamine D2 receptors (setting [1]) was 26 nM; on 5-HT2 receptors (setting [2]), 310 nM.
For the compound `CN(C)CCOc1cn(-c2ccc(F)cc2)c2ccc(Cl)cc12` [Compound 4a, N,N-Dimethyl-2-[5-chloro-1-(4-fluorophenyl)-3-1H-indolyloxy]ethylamine sesqui fumarate], the IC50 on dopamine D2 receptors (setting [1]) was 2.9 nM; at 5-HT2 receptors (setting [2]), 4.2 nM.
The matching figures for `CN(CCOc1cn(-c2ccc(F)cc2)c2ccc(Cl)cc12)CCN1CCNC1=O` [Compound 4b, 1-[2-[[2-[5-chloro-1-(4-fluorophenyl)-3-1H-indolyloxy]ethyl]methylamino]ethyl]-2-imidazolidinone Maleate]: 5.8 nM and 0.88 nM.
The matching figures for `C#CCN(CCOc1cn(-c2ccc(F)cc2)c2ccc(Cl)cc12)CCN1CCNC1=O` [Compound 4d, 1-[2-[[2-[5-Chloro-1-(4-fluorophenyl)-3-1H-indolyloxy]ethyl](3-propynyl)amino]ethyl]-2-imidazolidinone oxalate]: 190 nM and 220 nM.
The matching figures for `Fc1ccc(-n2cc(OCCN3CCCCC3)c3cc(Cl)ccc32)cc1` [Compound 4e, 5-Chloro-1-(4-fluorophenyl)-3-[2-(1-piperidinyl)ethoxy]-1H-indole]: 2.3 nM and 5.9 nM.
As for `Fc1ccc(-n2cc(OCCN3CCOCC3)c3cc(Cl)ccc32)cc1` [Compound 4f, 5-Chloro-1-(4-fluorophenyl)-3-[2-(4-morpholinyl)ethoxy]-1H-indole maleate], the results for the 50% inhibitory concentration (IC50) at dopamine D2 receptors (setting [1]) and at 5-HT2 receptors (setting [2]) were 27 nM and 48 nM, respectively.
For `CN(CCOc1cn(-c2ccc(F)cc2)c2cc(Cl)ccc12)CCN1CCNC1=O` [Compound 4h, 1-[2-[[2-[6-chloro-1-(4-fluorophenyl)-3-1H-indolyloxy]ethyl]methylamino]ethyl]-2-imidazolidinone], the IC50 at dopamine D2 receptors (setting [1]) is 200 nM; at 5-HT2 receptors (setting [2]), 2 nM.
Turning to `CC(C)N1CCN(CCN(C)CCOc2cn(-c3ccc(F)cc3)c3cc(Cl)ccc23)C1=O` [Compound 4i, 1-[2-[[2-[6-Chloro-1-(4-fluorophenyl)-3-1H-indolyloxy]ethyl]methylamino]ethyl]-3-(2-propyl)-2-imidazolidinone oxalate], the concentration for half-maximal inhibition (IC50) on dopamine D2 receptors (setting [3]) is 120 nM; on 5-HT2 receptors (setting [2]) it was 6.3 nM.
On to `CN(C)CCOc1cn(-c2ccc(F)cc2)c2cc(Cl)ccc12` [Compound 4j, N,N-Dimethyl-2-[6-chloro-1-(4-fluorophenyl)-3-1H-indolyloxy]ethylamine], for which the half-maximal inhibitory concentration (IC50) at dopamine D2 receptors (setting [1]) came out at 63 nM; at 5-HT2 receptors (setting [2]), 17 nM.
As for `O=C1NCCN1CCC1CCN(CCOc2cn(-c3ccc(F)cc3)c3ccc(Cl)cc23)CC1` [Compound 4k, 1-[2-[1-[2-[5-Chloro-1-(4-fluorophenyl)-3-1H-indolyloxy]ethyl]-4-piperidinyl]ethyl]-2-imidazolidinone], the IC50 on dopamine D2 receptors (setting [1]) worked out at 2.6 nM; at 5-HT2 receptors (setting [2]), 21 nM.
As for `CNC(=O)C1CCN(CCOc2cn(-c3ccc(F)cc3)c3ccc(Cl)cc23)CC1` [Compound 4n, N-methyl-1-[2-[5-chloro-1-(4-fluorophenyl)-3-1H-indolyloxy]ethyl]4-piperidinecarboxamide], the values for the concentration for half-maximal inhibition (IC50) on dopamine D2 receptors (setting [1]) and at 5-HT2 receptors (setting [2]) were 4.7 nM and 28 nM, respectively.
On to `Fc1ccc(-n2cc(OCCN3CCCC3)c3ccc(Cl)cc32)cc1` [Compound 4o, 6-Chloro-1-(4-fluorophenyl)-2-(1-pyrrolidinyl)ethoxy-1H-indole], for which the IC50 is 23 nM at dopamine D2 receptors (setting [1]) and 30 nM on 5-HT2 receptors.
As for `Fc1ccc(-n2cc(OCCN3CCCCC3)c3ccc(Cl)cc32)cc1` [Compound 4p, 6-Chloro-1-(4-fluorophenyl)-2-(1-piperidinyl)ethoxy-1H-indole], the IC50 at dopamine D2 receptors (setting [1]) turned out to be 17 nM; on 5-HT2 receptors it was 35 nM.
With `CN(C)CCSc1cn(-c2ccc(F)cc2)c2ccc(Cl)cc12` [Compound 4q, N,N-Dimethyl-2-[5-chloro-1-(4-fluorophenyl)-3-1H-indolylthio]ethylamine hydrochloride], the figures for the IC50 at dopamine D2 receptors (setting [3]) and on 5-HT2 receptors (setting [2]) were 140 nM and 43 nM, respectively.
Turning to `CN(CCSc1cn(-c2ccc(F)cc2)c2ccc(Cl)cc12)CCN1CCNC1=O` [Compound 4r, 1-[2-[[2-[5-Chloro-1-(4-fluorophenyl)-3-1H-indolylthio]ethyl]methylamino]ethyl]-2-imidazolidinone], the half-inhibitory concentration (IC50) at dopamine D2 receptors came out at 770 nM; at 5-HT2 receptors (setting [2]), 86 nM.
In the case of `CN(CCN1CCNC1=O)Cc1cn(-c2ccc(F)cc2)c2ccc(Cl)cc12` [Compound 4s, 1-[2-[[5-chloro-1-(4-fluorophenyl)-3-1H-indolylmethyl]methylamino]ethyl]-2-imidazolidinone], the IC50 turned out to be 22 nM at dopamine D2 receptors (setting [1]) and 20 nM on 5-HT2 receptors (setting [2]).
`CN(CCCN1CCNC1=O)CCc1cn(-c2ccc(F)cc2)c2ccc(Cl)cc12` [Compound 4u, 1-[3-[[2-[5-chloro-1-(4-fluorophenyl)-3-1H-indolyl]ethyl]methylamino]propyl]-2-imidazolidinone hydrochloride]: the IC50 on dopamine D2 receptors (setting [3]) came out at 19 nM; on 5-HT2 receptors (setting [2]), 1 nM.
With `CN(CCc1cn(-c2ccc(F)cc2)c2ccc(Cl)cc12)CCN1CCNC1=O` [Compound 4v, 1-[2-[[2-[5-chloro-1-(4-fluorophenyl)-3-1H-indolyl]ethyl]methylamino]ethyl]-2-imidazolidinone maleate], the IC50 on dopamine D2 receptors (setting [1]) is 25 nM; on 5-HT2 receptors (setting [2]), 5.3 nM.
For `C[C@@H](COc1cn(-c2ccc(F)cc2)c2ccc(Cl)cc12)N(C)C` [Compound 6a, (S)-N, N-Dimethyl-2-[5-chloro-1-(4-fluorophenyl) -3-1H-indolyloxy]-1-methylethylamine Oxalate], the 50% inhibitory concentration (IC50) on dopamine D2 receptors (setting [3]) worked out at 5.5 nM; on 5-HT2 receptors (setting [2]), 7.4 nM.
The matching figures for `C[C@H](COc1cn(-c2ccc(F)cc2)c2ccc(Cl)cc12)N(C)C` [Compound 6b, (R)-N,N-Dimethyl-2-[5-chloro-1-(4-fluorophenyl)-3-1H-indolyloxy]-1-methylethylamine oxalate]: 37 nM and 21 nM.
As for `CN(C)C(C)(C)COc1cn(-c2ccc(F)cc2)c2ccc(Cl)cc12` [Compound 6c, N,N-Dimethyl-1,1-dimethyl-2-[5-chloro-1-(4-fluorophenyl)-3-1H-indolyloxy]ethylamine oxalate], the IC50 on dopamine D2 receptors (setting [3]) is 330 nM; on 5-HT2 receptors (setting [2]), 42 nM.
For the compound `CN1CCC[C@H]1COc1cn(-c2ccc(F)cc2)c2ccc(Cl)cc12` [Compound 7a, (S)-1-Methyl-2-pyrrolidinylmethoxy-5-chloro-1-(4-fluorophenyl)-1H-indole Oxalate], the results for the concentration for half-maximal inhibition (IC50) on dopamine D2 receptors (setting [1]) and at 5-HT2 receptors (setting [2]) were 30 nM and 18 nM, respectively.
In the case of `O=C1NCCN1CCN1CCC[C@@H]1COc1cn(-c2ccc(F)cc2)c2ccc(Cl)cc12` [Compound 8a, (R)-1-[2-[2-[5-Chloro-1-(4-fluorophenyl)-3-1H-indolyloxymethyl]-1-pyrrolidinyl]ethyl]-2-imidazolidinone Oxalate], the results for the half-inhibitory concentration (IC50) on dopamine D2 receptors (setting [3]) and on 5-HT2 receptors (setting [2]) were 8.1 nM and 49 nM, respectively.
The matching figures for `C[C@@H](CN(C)CCOc1cn(-c2ccc(F)cc2)c2ccc(Cl)cc12)N1CCNC1=O` [Compound 8b, (S)-1-[1-methyl-2-[[2-[5-chloro-1-(4-fluorophenyl)-3-1H-indolyloxy]ethyl]methylamino]ethyl]-2-imidazolidinone oxalate]: 35 nM and 220 nM.
As for `CN(C)CCOc1c(CO)n(-c2ccc(F)cc2)c2ccc(Cl)cc12` [Compound 9a, N,N-Dimethyl-2-[5-chloro-1-(4-fluorophenyl)-2-hydroxymethyl-3-1H-indolyloxy]ethylamine Hydrochloride], the 50% inhibitory concentration (IC50) at dopamine D2 receptors (setting [3]) stood at 430 nM; on 5-HT2 receptors, 38 nM.
In the case of `Cc1c(OCCN(C)C)c2cc(Cl)ccc2n1-c1ccc(F)cc1` [Compound 10, N,N-Dimethyl-2-[5-chloro-1-(4-fluorophenyl)-2-methyl-3-1H-indolyloxy]ethylamine Oxalate], the IC50 on dopamine D2 receptors (setting [3]) amounted to 83 nM; at 5-HT2 receptors (setting [2]), 11 nM.
`CN(C)Cc1cn(-c2ccc(F)cc2)c2ccc(Cl)cc12` [Compound 13a, N,N-Dimethyl-[5-chloro-1-(4-fluorophenyl)-3-1H-indolyl]methylamine Maleate]: the 50% inhibitory concentration (IC50) turned out to be 19 nM on dopamine D2 receptors (setting [1]) and 12 nM at 5-HT2 receptors (setting [2]).
